Test results published in patent EP4745134A1 (Jiangsu Yahong Meditech Co., Ltd., priority 2023, dated 2025).

Key:
HCT116-WT cells = test: Inhibitory activity against cell proliferation (CellTiter Glo, 6 days), HCT116-WT; format: cell-based; conditions: 144 h, HCT116-WT cells, 6 days, CellTiter Glo; read-out: HCT116-WT IC50
Outline: (§1)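 Viability is measured by CellTiter Glo luminescence on day 7, following a 6-day treatment with compounds serially diluted 4-fold over 8 points from 10000 nM. Both lines are plated at 250 cells per well and cultured overnight beforehand.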

HCT116 MTAP KO cells = test: Inhibitory activity against cell proliferation (CellTiter Glo, 6 days), HCT116 MTAP KO; format: cell-based; conditions: for IC50: Homo sapiens, HCT-116, 144 h, HCT116 MTAP KO cells, 6 days, CellTiter Glo, read-out: HCT116 MTAP KO IC50; for Selectivity HCT 116-WT/ HCT116 MTAP KO: ratio of IC50 HCT116-WT / HCT116 MTAP KO
Outline: as §1

PRMT5-MTA = PRMT5-MTA (Homo sapiens, UniProt O14744); test: Enzymatic inhibitory activity against PRMT5-MTA (AlphaScreen); format: biochemical; conditions: read-out: IC50
Sequence of PRMT5-MTA (O14744 whole entry): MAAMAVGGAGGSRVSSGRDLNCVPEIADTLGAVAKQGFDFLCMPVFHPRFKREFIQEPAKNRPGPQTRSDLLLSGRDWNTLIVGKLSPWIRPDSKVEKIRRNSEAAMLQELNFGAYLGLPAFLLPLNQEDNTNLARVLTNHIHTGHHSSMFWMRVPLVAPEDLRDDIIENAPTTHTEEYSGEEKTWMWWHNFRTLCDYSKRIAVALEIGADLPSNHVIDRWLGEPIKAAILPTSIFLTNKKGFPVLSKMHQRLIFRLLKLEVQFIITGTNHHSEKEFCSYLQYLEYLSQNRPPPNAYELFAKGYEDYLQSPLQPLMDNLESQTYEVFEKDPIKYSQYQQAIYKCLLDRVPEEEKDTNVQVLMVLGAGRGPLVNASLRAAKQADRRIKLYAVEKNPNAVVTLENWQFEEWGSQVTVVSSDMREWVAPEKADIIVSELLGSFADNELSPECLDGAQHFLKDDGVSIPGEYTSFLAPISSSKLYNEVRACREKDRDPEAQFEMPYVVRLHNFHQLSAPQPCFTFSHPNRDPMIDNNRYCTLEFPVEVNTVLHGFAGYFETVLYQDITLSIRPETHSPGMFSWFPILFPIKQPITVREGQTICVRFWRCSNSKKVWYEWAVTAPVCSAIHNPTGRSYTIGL
Sequence of PRMT5-MTA (Q9BQA1 whole entry partner): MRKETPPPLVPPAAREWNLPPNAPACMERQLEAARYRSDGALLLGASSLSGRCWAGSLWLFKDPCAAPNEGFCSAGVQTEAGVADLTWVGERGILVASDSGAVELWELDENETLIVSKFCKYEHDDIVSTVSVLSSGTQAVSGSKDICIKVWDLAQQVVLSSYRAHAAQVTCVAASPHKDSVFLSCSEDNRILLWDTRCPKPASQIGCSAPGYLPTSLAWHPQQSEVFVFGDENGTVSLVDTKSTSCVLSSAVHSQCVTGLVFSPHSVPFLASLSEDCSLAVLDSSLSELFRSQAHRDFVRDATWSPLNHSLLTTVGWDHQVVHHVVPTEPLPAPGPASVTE
Outline: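 PRMT5/[…] (1 nM) was preincubated for 30 min at room temperature with 1 µM […] and 2.5 µM SAM, then exposed to compound (10-point, 3-fold from 1000 nM) for 15 min at 23 °C. Histone H4 substrate (5 nM) was added and reacted for 45 min at 23 °C. Symmetric dimethyl-R3 H4 was detected by AlphaScreen and IC50 calculated.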

SMILES | IC50 (HCT116-WT cells) [nM] | IC50 (HCT116 MTAP KO cells) [nM] | Selectivity HCT 116-WT/ HCT116 MTAP KO (HCT116 MTAP KO cells) | IC50 (PRMT5-MTA) [nM]
[2H]C([2H])([2H])c1cc2cc(C(=O)N(Cc3ccc(-c4cnn(C)c4)cn3)N(C)c3ncccn3)ccc2nc1N [Example 166, 2-amino-N'-methyl-3-(methyl-D3)-N-((5-(1-methyl-1H-pyrazol-4-yl)pyridin-2-yl)methyl)-N'-(pyrimidin-2-yl)quinoline-6-carbohydrazide] | 1250 | 68 | 18.32 | 4.8
Cc1cc2cc(C(=O)N(Cc3ccc(-c4ccn(C)n4)cn3)N(C)c3ncccn3)ccc2nc1N [Example 168, 2-amino-N',3-dimethyl-N-((5-(1-methyl-1H-pyrazol-3-yl)pyridin-2-yl)methyl)-N'-(pyrimidin-2-yl)quinoline-6-carbohydrazide] | 2570 | 194 | 13.26 | 2.6
Cc1cc2cc(C(=O)N(Cc3ccc(-c4cnn(C5COC5)c4)cn3)N(C)c3ncccn3)ccc2nc1N [Example 169, 2-amino-N',3-dimethyl-N-((5-(1-(oxetan-3-yl)-1H-pyrazol-4-yl)pyridin-2-yl)methyl)-N'-(pyrimidin-2-yl)quinoline-6-carbohydrazide] | 973 | 39 | 24.95 | 2.5
Cc1ncsc1-c1ccc(CN(C(=O)c2ccc3nc(N)c(Br)cc3c2)N(c2ncccn2)C2CC2)nc1 [Example 171, 2-amino-3-bromo-N'-cyclopropyl-N-((5-(4-methylthiazol-5-yl)pyridin-2-yl)methyl)-N'-(pyrimidin-2-yl)quinoline-6-carbohydrazide] | 622 | 43 | 14.47 | 5.2
Cc1cc2cc(C(=O)N(Cc3ccc(-c4cccnc4)cn3)N(C)c3ncccn3)ccc2nc1N [Example 172, N-([3,3'-bipyridine]-6-ylmethyl)-2-amino -N',3-dimethyl-N'-(pyrimidin-2-yl)quinoline-6-carbohydrazide] | 1750 | 24 | 73.08 | 2.1
Cc1cc2cc(C(=O)N(Cc3ccc(-c4ccncc4)cn3)N(C)c3ncccn3)ccc2nc1N [Example 173, N-([3,4'-bipyridine]-6-ylmethyl)-2-amino -N',3-dimethyl-N'-(pyrimidin-2-yl)quinoline-6-carbohydrazide] | 633 | 21 | 30.14 | 1.9
COc1ccc(-c2ccc(CN(C(=O)c3ccc4nc(N)c(C)cc4c3)N(C)c3ncccn3)nc2)cn1 [Example 174, 2-amino-N-((6'-methoxy-[3,3'-bipyridine] -6-yl)methyl)-N',3-dimethyl-N'-(pyrimidin-2-yl)quinoline-6-carbohydrazide] | 1080 | 41 | 26.22 | 2.3
Cc1cc2cc(C(=O)N(Cc3ccc(-c4cncc(C(F)(F)F)c4)cn3)N(C)c3ncccn3)ccc2nc1N [Example 175, 2-amino-N',3-dimethyl-N'-(pyrimidin-2-yl)-N-((5'-(trifluoromethyl)-[3,3'-bipyridine]-6-yl)methyl)quinoline-6-carbohydrazide] | 2200 | 116 | 18.95 | 3.3
Cc1cc2cc(C(=O)N(Cc3ccc(-c4ccc(N5CCOCC5)nc4)cn3)N(C)c3ncccn3)ccc2nc1N [Example 176, 2-amino-N',3-dimethyl-N-((6'-morpholinyl-[3,3'-bipyridine]-6-yl)methyl)-N'-(pyrimidin-2-yl)quinoline-6-carbohydrazide] | 997 | 57 | 17.49 | 2
Cc1cc2cc(C(=O)N(Cc3ccc(-c4cccnc4)cc3F)N(C)c3ncccn3)ccc2nc1N [Example 177, 2-amino-N-(2-fluoro-4-(pyridin-3-yl)benzyl)-N',3-dimethyl-N'-(pyrimidin-2-yl)qu inoline-6-carbohydrazide] | 936 | 30 | 31.20 | 1.1
Cc1cc2cc(C(=O)N(Cc3ccc(-c4ccncc4)cn3)N(C)c3ncccc3F)ccc2nc1N [Example 178, N-([3,4'-bipyridine]-6-ylmethyl)-2-amino -N'-(3-fluoropyridin-2-yl)-N',3-dimethylq uinoline-6-carbohydrazide] | 486 | 21 | 23.14 | 1.6
Cc1cc2cc(C(=O)N(Cc3ccc(-c4cnn(C)c4)cn3)N(C)c3ncccc3F)ccc2nc1N [Example 179, 2-amino-N'-(3-fluoropyridin-2-yl)-N',3-di methyl-N-((5-(1-methyl-1H-pyrazol-4-yl)pyridin-2-yl)methyl)quinoline-6-carbohy drazide] | 1320 | 64 | 20.56 | 3.4
Cc1ncc(-c2ccc(CN(C(=O)c3ccc4nc(N)c(C)cc4c3)N(C)c3ncccn3)nc2)cn1 [Example 180, 2-amino-N',3-dimethyl-N-((5-(2-methylpyrimidin-5-yl)pyridin-2-yl)methyl)-N'-(pyrimidin-2-yl)quinoline-6-carbohydrazide] | 1880 | 41 | 45.73 | 3.2
Cc1cc2cc(C(=O)N(Cc3ccc(-c4cnn(CC(F)(F)F)c4)cn3)N(C)c3ncccn3)ccc2nc1N [Example 181, 2-amino-N',3-dimethyl-N'-(pyrimidin-2-yl)-N-((5-(1-(2,2,2-trifluoroethyl)-1H-pyrazol-4-yl)pyridin-2-yl)methyl)quinoline-6-carbohydrazide] | 865 | 36 | 24.03 | 0.69
Cc1cc2cc(C(=O)N(Cc3ccc(-c4cncs4)cn3)N(C)c3nccc4nccnc34)ccc2nc1N [Example 183, 2-amino-N',3-dimethyl-N'-(pyrido[3,4-b]pyrazin-5-yl)-N-((5-(thiazol-5-yl)pyridin-2-yl)methyl)quinoline-6-carbohydrazide] | 318 | 17 | 18.71 | 3.9
Cc1cc2cc(C(=O)N(Cc3ccc(-c4scnc4C)cn3)N(C)c3nccc4nccnc34)ccc2nc1N [Example 185, 2-amino-N',3-dimethyl-N-((5-(4-methylthiazol-5-yl)pyridin-2-yl)methyl)-N'-(pyrido[3,4-b]pyrazin-5-yl)quinoline-6-carbohydrazide] | 128 | 7.5 | 17.07 | 4.7
Cc1cc2cc(C(=O)N(Cc3ccc(C4=CCOC4)cn3)N(C)c3ncccn3)ccc2nc1N [Example 186, 2-amino-N-((5-(2,5-dihydrofuran-3-yl)pyridin-2-yl)methyl)-N',3-dimethyl-N'-(pyrimidin-2-yl)quinoline-6-carbohydrazide] | 2830 | 122 | 23.20 | 5.6
Cc1cc2cc(C(=O)N(Cc3ccc(C4=CCCOC4)cn3)N(C)c3ncccn3)ccc2nc1N [Example 187, 2-amino-N-((5-(5,6-dihydro-2H-pyran-3-yl)pyridin-2-yl)methyl)-N',3-dimethyl-N' -(pyrimidin-2-yl)quinoline-6-carbohydrazide] | 788 | 33 | 23.88 | 2.3
C=Cc1ccc(CN(C(=O)c2ccc3nc(N)c(C)cc3c2)N(C)c2ncccn2)nc1 [Example 188, 2-amino-N',3-dimethyl-N'-(pyrimidin-2-yl)-N-((5-vinylpyridin-2-yl)methyl)quinoline-6-carbohydrazide] | 2830 | 126 | 22.44 | 2.7
Cc1cc2cc(C(=O)N(Cc3ccc(-c4cc[nH]c4)cn3)N(C)c3ncccn3)ccc2nc1N [Example 191, N-((5-(1H-pyrrol-3-yl)pyridin-2-yl)methyl)-2-amino-N',3-dimethyl-N'-(pyrimidin-2-yl)quinoline-6-carbohydrazide] | 2340 | 112 | 20.90 | 2.5
Cc1cc2cc(C(=O)N(Cc3ccc(-c4cnn(C5CC5)c4)cn3)N(C)c3ncccn3)ccc2nc1N [Example 192, 2-amino-N-((5-(1-cyclopropyl-1H-pyrazol-4-yl)pyridin-2-yl)methyl)-N',3-dimethyl -N'-(pyrimidin-2-yl)quinoline-6-carbohydrazide] | 1220 | 44 | 27.66 | 2.1
Cc1cc2cc(C(=O)N(Cc3ccc(-c4cncnc4)cn3)N(C)c3ncccn3)ccc2nc1N [Example 193, 2-amino-N',3-dimethyl-N'-(pyrimidin-2-yl)-N-((5-(pyrimidin-5-yl)pyridin-2-yl)methyl)quinoline-6-carbohydrazide] | 2380 | 94 | 25.35 | 2.7
